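Abbreviation: GI50, concentration required for 50% inhibition of growth. The concentration for full growth arrest is given as TGI.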
How the values were obtained:
Assay in all cases: NCI-60 cell line screen, 384-well format
A498 renal = test system: A498 renal
IGROV1 ovarian = test system: IGROV1 ovarian
MOLT-4 leukemia = test system: MOLT-4 leukemia
MDA-MB-231 breast = test system: MDA-MB-231 breast
SK-OV-3 ovarian = test system: SK-OV-3 ovarian
OVCAR-3 ovarian = test system: OVCAR-3 ovarian
SF-268 CNS = test system: SF-268 CNS
MCF7 breast = test system: MCF7 breast
CAKI-1 renal = test system: CAKI-1 renal
UACC-257 melanoma = test system: UACC-257 melanoma
HOP-62 NSCLC = test system: HOP-62 NSCLC
SF-295 CNS = test system: SF-295 CNS
OVCAR-5 ovarian = test system: OVCAR-5 ovarian
K-562 leukemia = test system: K-562 leukemia
NCI-H522 lung = test system: NCI-H522 lung
CCRF-CEM leukemia = test system: CCRF-CEM leukemia
NCI-H23 lung = test system: NCI-H23 lung
A549 NSCLC = test system: A549 NSCLC
SK-MEL-28 melanoma = test system: SK-MEL-28 melanoma
BT-549 breast = test system: BT-549 breast
SN12C renal = test system: SN12C renal
NCI/ADR-RES ovarian = test system: NCI/ADR-RES ovarian
HCT-15 colon = test system: HCT-15 colon
M14 melanoma = test system: M14 melanoma
RXF 393 renal = test system: RXF 393 renal
COLO 205 colon = test system: COLO 205 colon
OVCAR-4 ovarian = test system: OVCAR-4 ovarian
UACC-62 melanoma = test system: UACC-62 melanoma
UO-31 renal = test system: UO-31 renal
HL-60(TB) leukemia = test system: HL-60(TB) leukemia
NCI-H460 NSCLC = test system: NCI-H460 NSCLC
SK-MEL-2 melanoma = test system: SK-MEL-2 melanoma
MDA-MB-435 melanoma = test system: MDA-MB-435 melanoma
RPMI-8226 leukemia = test system: RPMI-8226 leukemia
U251 glioblastoma = test system: U251 glioblastoma
PC-3 prostate = test system: PC-3 prostate
OVCAR-8 ovarian = test system: OVCAR-8 ovarian
DU-145 prostate = test system: DU-145 prostate
KM12 colon = test system: KM12 colon
SW-620 colon = test system: SW-620 colon
T-47D breast = test system: T-47D breast
LOX IMVI melanoma = test system: LOX IMVI melanoma
SK-MEL-5 melanoma = test system: SK-MEL-5 melanoma
HT29 colon = test system: HT29 colon
HOP-92 NSCLC = test system: HOP-92 NSCLC
HCT-116 colon = test system: HCT-116 colon
ACHN renal = test system: ACHN renal
786-0 renal = test system: 786-0 renal
MDA-MB-468 breast = test system: MDA-MB-468 breast
SR leukemia = test system: SR leukemia
MALME-3M melanoma = test system: MALME-3M melanoma
NCI-H226 lung = test system: NCI-H226 lung
HCC-2998 colon = test system: HCC-2998 colon
SF-539 CNS = test system: SF-539 CNS
TK-10 renal = test system: TK-10 renal
SNB-19 CNS = test system: SNB-19 CNS
NCI-H322M lung = test system: NCI-H322M lung

`Cc1[nH]c(/C=C2\C(=O)Nc3ccc(S(=O)(=O)Cc4c(Cl)cccc4Cl)cc32)c(C)c1C(=O)N1CCC[C@@H]1CN1CCCC1` was tested, and the GI50 (A498 renal) was 1630 nM, the TGI (A498 renal) was 2990 nM and the GI50 (IGROV1 ovarian) was 1710 nM. For the same compound, the TGI (IGROV1 ovarian) was 3100 nM, the GI50 (MOLT-4 leukemia) was 573 nM and the TGI (MOLT-4 leukemia) was 1730 nM. It also gave a GI50 (MDA-MB-231 breast) of 1670 nM, a TGI (MDA-MB-231 breast) of 3040 nM and a GI50 (SK-OV-3 ovarian) of 1340 nM. The TGI (SK-OV-3 ovarian) was 2630 nM, the GI50 (OVCAR-3 ovarian) was 1890 nM and the TGI (OVCAR-3 ovarian) was 3310 nM. The GI50 (SF-268 CNS) was 1460 nM, the TGI (SF-268 CNS) was 2780 nM and the GI50 (MCF7 breast) was 1750 nM. It also gave a TGI (MCF7 breast) of 3130 nM, a GI50 (CAKI-1 renal) of 1530 nM and a TGI (CAKI-1 renal) of 2860 nM. It also gave a GI50 (UACC-257 melanoma) of 1420 nM, a TGI (UACC-257 melanoma) of 2730 nM and a GI50 (HOP-62 NSCLC) of 1850 nM. It also gave a TGI (HOP-62 NSCLC) of 3250 nM, a GI50 (SF-295 CNS) of 1320 nM and a TGI (SF-295 CNS) of 2590 nM. It also gave a GI50 (OVCAR-5 ovarian) of 1930 nM, a TGI (OVCAR-5 ovarian) of 3370 nM and a GI50 (K-562 leukemia) of 1720 nM. For the same compound, the TGI (K-562 leukemia) was 3100 nM, the GI50 (NCI-H522 lung) was 1980 nM and the TGI (NCI-H522 lung) was 3400 nM. The GI50 (CCRF-CEM leukemia) was 681 nM, the TGI (CCRF-CEM leukemia) was 1900 nM and the GI50 (NCI-H23 lung) was 1020 nM. The TGI (NCI-H23 lung) was 6680 nM, the GI50 (A549 NSCLC) was 1710 nM and the TGI (A549 NSCLC) was 3100 nM. For the same compound, the GI50 (SK-MEL-28 melanoma) was 1750 nM, the TGI (SK-MEL-28 melanoma) was 3130 nM and the GI50 (BT-549 breast) was 1560 nM. For the same compound, the TGI (BT-549 breast) was 2900 nM, the GI50 (SN12C renal) was 1500 nM and the TGI (SN12C renal) was 2830 nM. For the same compound, the GI50 (NCI/ADR-RES ovarian) was 1890 nM, the TGI (NCI/ADR-RES ovarian) was 3360 nM and the GI50 (HCT-15 colon) was 1820 nM. For the same compound, the TGI (HCT-15 colon) was 3230 nM, the GI50 (M14 melanoma) was 1740 nM and the TGI (M14 melanoma) was 3120 nM. It also gave a GI50 (RXF 393 renal) of 1650 nM, a TGI (RXF 393 renal) of 3010 nM and a GI50 (COLO 205 colon) of 1720 nM. It also gave a TGI (COLO 205 colon) of 3100 nM, a GI50 (OVCAR-4 ovarian) of 1740 nM and a TGI (OVCAR-4 ovarian) of 3130 nM. It also gave a GI50 (UACC-62 melanoma) of 1060 nM, a TGI (UACC-62 melanoma) of 2250 nM and a GI50 (UO-31 renal) of 1690 nM. For the same compound, the TGI (UO-31 renal) was 3070 nM, the GI50 (HL-60(TB) leukemia) was 2110 nM and the TGI (HL-60(TB) leukemia) was 3540 nM. For the same compound, the GI50 (NCI-H460 NSCLC) was 1340 nM, the TGI (NCI-H460 NSCLC) was 2630 nM and the GI50 (SK-MEL-2 melanoma) was 1240 nM. It also gave a TGI (SK-MEL-2 melanoma) of 2490 nM, a GI50 (MDA-MB-435 melanoma) of 1760 nM and a TGI (MDA-MB-435 melanoma) of 3150 nM. For the same compound, the GI50 (RPMI-8226 leukemia) was 1250 nM, the TGI (RPMI-8226 leukemia) was 2500 nM and the GI50 (U251 glioblastoma) was 1810 nM. For the same compound, the TGI (U251 glioblastoma) was 3220 nM, the GI50 (PC-3 prostate) was 1720 nM and the TGI (PC-3 prostate) was 3110 nM. It also gave a GI50 (OVCAR-8 ovarian) of 1680 nM, a TGI (OVCAR-8 ovarian) of 3060 nM and a GI50 (DU-145 prostate) of 1850 nM. The TGI (DU-145 prostate) was 3250 nM, the GI50 (KM12 colon) was 445 nM and the TGI (KM12 colon) was 1500 nM. For the same compound, the GI50 (SW-620 colon) was 1760 nM, the TGI (SW-620 colon) was 3160 nM and the GI50 (T-47D breast) was 1740 nM. For the same compound, the TGI (T-47D breast) was 3120 nM, the GI50 (LOX IMVI melanoma) was 2020 nM and the TGI (LOX IMVI melanoma) was 3460 nM. For the same compound, the GI50 (SK-MEL-5 melanoma) was 1190 nM, the TGI (SK-MEL-5 melanoma) was 2430 nM and the GI50 (HT29 colon) was 1780 nM. It also gave a TGI (HT29 colon) of 3180 nM, a GI50 (HOP-92 NSCLC) of 1880 nM and a TGI (HOP-92 NSCLC) of 3290 nM. The GI50 (HCT-116 colon) was 1560 nM, the TGI (HCT-116 colon) was 2910 nM and the GI50 (ACHN renal) was 1600 nM. It also gave a TGI (ACHN renal) of 2950 nM, a GI50 ([…]-0 renal) of 1440 nM and a TGI (786-0 renal) of 2750 nM. It also gave a GI50 (MDA-MB-468 breast) of 1580 nM, a TGI (MDA-MB-468 breast) of 2930 nM and a GI50 (SR leukemia) of 1310 nM. The TGI (SR leukemia) was 2590 nM, the GI50 (MALME-3M melanoma) was 1720 nM and the TGI (MALME-3M melanoma) was 3100 nM. For the same compound, the GI50 (NCI-H226 lung) was 1930 nM, the TGI (NCI-H226 lung) was 3340 nM and the GI50 (HCC-2998 colon) was 1990 nM. For the same compound, the TGI (HCC-2998 colon) was 3420 nM, the GI50 (SF-539 CNS) was 1740 nM and the TGI (SF-539 CNS) was 3120 nM. For the same compound, the GI50 (TK-10 renal) was 1820 nM, the TGI (TK-10 renal) was 3220 nM and the GI50 (SNB-19 CNS) was 1940 nM. The TGI (SNB-19 CNS) was 3360 nM, the GI50 (NCI-H322M lung) was 1750 nM and the TGI (NCI-H322M lung) was 3150 nM.
